Test results from US20250134889A1, “TARGETING IRE1 KINASE AND FMRP FOR PROPHYLAXIS, MANAGEMENT AND TREATMENT OF ATHEROSCLEROSIS” (CEDARS-SINAI MEDICAL CENTER, priority 2022, published 2025).

Target: T1, IRE1 kinase activity (Mus musculus, UniProt Q9EQY0)
T1 construct: from tissue; host or cells: thioglycolate-elicited peritoneal macrophages of C57BL/6 mice
Test: IRE1 and FMRP phosphorylation in peritoneal macrophages of TM-injected mice (western blot)
Type: in vivo
Conditions: C57BL/6, AMG-18 30 mg/kg 8 hours, TM 1 mg/kg
Experimental: FIGS. 1A-1K depict FMRP is a new inositol-requiring enzyme-1 (IRE1) kinase substrate. A representative blot is shown from at least n=3 independent experiments. Data are mean±SEM. Unpaired 1-test with Welch's correction or paired 1-test. * P≤0.05, ** P≤0.01, *** P≤0.001. • 1A. STING analysis of published IRE1 interactome proteins in relation to FMRP (Acosta-Alvear et al., 2018). • 1B. HEK293T cells were co-transfected with IRE1 and FMRP plasmids and stimulated with TG (600 nM) or TM (1 mg/ml) for 2 hours. Protein lysates were immunoprecipitated (IP) with anti-IRE1 or IgG (control) antibodies and analyzed by Western blotting using specific antibodies for FMRP and IRE1 (n=3). • 1C. RAW 264.7 mouse macrophages were treated with either oxLDL (50 μg/ml) or TG (300 nM) for 6 hours. Protein lysates were treated with λ Phosphatase (PPase) for 30 minutes and analyzed by western blotting using specific antibodies for pFMRP, FMRP, pIRE1, IRE1 and β-Actin. pFMRP/FMRP fold induction is depicted above the blots (n=6). • 1D. […] Protein lysates were analyzed by western blotting using specific antibodies for pFMRP, FMRP, pIRE1, IRE1 and β-Actin. pFMRP/FMRP-fold induction is depicted above the blots (n=5). • 1E. […] Protein lysates were analyzed by western blotting using specific antibodies for pFMRP, FMRP, pIRE1, IRE1 and β-Actin. pFMRP/FMRP fold induction is depicted above the blots (n=4). • 1F. […]

T1 sequence (Q9EQY0 21-977): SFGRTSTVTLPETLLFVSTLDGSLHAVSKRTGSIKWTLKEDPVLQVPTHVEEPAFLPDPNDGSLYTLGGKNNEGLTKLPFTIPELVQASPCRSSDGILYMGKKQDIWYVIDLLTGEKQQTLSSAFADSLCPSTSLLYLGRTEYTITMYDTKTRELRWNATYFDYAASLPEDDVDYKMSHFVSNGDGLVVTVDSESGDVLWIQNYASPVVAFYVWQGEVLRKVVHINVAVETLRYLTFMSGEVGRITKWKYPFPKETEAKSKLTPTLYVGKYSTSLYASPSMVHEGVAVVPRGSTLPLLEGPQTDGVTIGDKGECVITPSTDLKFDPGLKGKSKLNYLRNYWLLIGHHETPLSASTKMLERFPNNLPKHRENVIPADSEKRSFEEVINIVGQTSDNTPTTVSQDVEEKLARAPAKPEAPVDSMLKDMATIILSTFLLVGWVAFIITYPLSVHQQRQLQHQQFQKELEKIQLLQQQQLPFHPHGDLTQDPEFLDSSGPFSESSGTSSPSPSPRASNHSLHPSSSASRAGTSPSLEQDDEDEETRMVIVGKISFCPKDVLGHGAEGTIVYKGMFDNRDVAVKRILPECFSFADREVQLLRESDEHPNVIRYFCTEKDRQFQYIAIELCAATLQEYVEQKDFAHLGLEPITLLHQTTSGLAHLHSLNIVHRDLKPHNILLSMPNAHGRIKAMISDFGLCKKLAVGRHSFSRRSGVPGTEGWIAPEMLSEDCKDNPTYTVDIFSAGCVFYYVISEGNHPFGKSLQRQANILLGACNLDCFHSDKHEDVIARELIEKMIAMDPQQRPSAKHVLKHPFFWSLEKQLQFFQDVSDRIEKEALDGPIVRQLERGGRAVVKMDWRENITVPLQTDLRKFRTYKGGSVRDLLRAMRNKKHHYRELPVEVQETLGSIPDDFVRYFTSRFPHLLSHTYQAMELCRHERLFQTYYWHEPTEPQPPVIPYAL

## Cc1ccc2c(NS(=O)(=O)c3ccccc3Cl)cccc2c1Oc1ncccc1-c1ccnc(N[C@H]2CCCNC2)n1 [AMG-18]
  FMRP phosphorylation in PM: reduced
  IRE1 kinase activity (pIRE1) in PM: inhibited
